This is an account of results in patent US20260207824A1, “GALLIUM-LOADED HYDROGELS FOR BONE TREATMENT” (NORTHEAST OHIO MEDICAL UNIVERSITY, priority 2022, published 2026).

Data set [1] concerns RAW 264.7 cells. The data set is described as follows: Biocompatibility (MTT cell viability) of GaAcAc in pre-osteoclastic cells. It is filed as cell-based, murine. Particulars: GaAcAc 10-50 μg/mL, 37° C., vs untreated control. Here is the method: (§1) RAW 264.7 (pre-osteoclast) and MC3T3 (pre-osteoblast) cells were cultured and maintained in DMEM & AMEM supplemented with 10% FBS and 1% PenStrep in a humidified incubator at 37° C. and 5% CO2 conditions. RAW and MC 3 T3 cells, upon 70-80% confluency, were gently detached using a cell scraper and/or 0.25% v/v trypsin/EDTA. The detached cell suspension was collected and centrifuged at 1500 RPM for 5 minutes and seeded accordingly to the requirement for each experiment.
(§2) After the stipulated time of incubation, cell viability was measured by MTT assay using untreated control cells as a reference.

Another data set deals with MC3T3 cells. Nature of the data set: Biocompatibility (MTT cell viability) of GaAcAc in pre-osteoblastic cells. It is filed as cell-based. The note with it: GaAcAc 10-50 μg/mL, 37° C., vs untreated control. As for the experimental part: as §1, §2
Data set [2] has as its system RAW 264.7 cells. The data set is described as follows: OC differentiation of RAW 264.7 cells with RANKL (TRAP activity, OC count, TRAP staining). The note with it: for TRAP activity: vs positive control (RANKL alone); for number of TRAP-stained OCs (OC count): vs positive control, p<0.0001. It is filed as cell-based, murine. As for the experimental part:
Pre-osteoclast (RAW 264.7) cells were differentiated by treating the cells with culture media supplemented with or without different concentration of F127 hydrogel (HG) leachates and 30 ng/ml RANKL. The cells were then assessed for TRAP activity and stained. (A) TRAP activity; (B) OC count. Only cells which have 3 or more nuclei and were TRAP stained, i.e., pink color were counted. Each data point represents Mean±SD; n=4 wells. *** p<0.0001, *p<0.01 vs RANKL.
RAW 264.7 (Pre-OC) cells were seeded at a density of 1.5×10^5 cells/cm^2 (day 0) in a 24-well bottom dish of an insert plate and incubated overnight for adherence. Subsequently, (day 1), cells were treated with growth media supplemented with 30 ng/ml of RANKL (positive control) alone or RANKL (30 ng/ml) together with various treatments-GaAcAc solution, MH, or GaMH. […] After the initial treatment and RANKL supplementation, cells in all treatment groups (except untreated control) received RANKL supplementation on day 3 to induce OC formation. On day 4, mature OCs were fixed at 4% paraformaldehyde for 10 minutes at room temperature and evaluated for the extent of OC differentiation based on tartrate-resistant acid phosphatase (TRAP) activity and stained with TRAP staining solution. TRAP (pink colored) stained and multinucleated (≥3 nuclei) cells according to earlier reported methods. Abdelmagid et al., J Biol Chem, 290(33): p. 20128-46 (2015).

In data set [3] the test system is murine hematopoietic stem cells (mHSCs). The data set is described as follows: OC differentiation of murine hematopoietic stem cells with M-CSF and RANKL. It is filed as cell-based, C57BL/6 mice. As for the experimental part:
All mice were housed and maintained at Northeast Ohio Medical University according to the guidelines of the Institutional Animal Care and Use Committee. Bone marrow cells were flushed from the femora, and tibiae were extracted from euthanized C57BL/6 mice (male, 6-8 weeks) as described previously. Xing L. and B.F. Boyce, Methods Mol Biol, 1130: p. 307-313(2014). The flushed cells were incubated overnight to separate hematopoietic (in supernatant) and mesenchymal (adherent) stem cells. The supernatant was then collected and seeded at the required density based on the type of well plate used (96 well plate: 2×10^5 cells/well & 24 well plate: 1.5×10^6 cells per well-day 0) in culture media supplemented with 30 ng/ml of M-CSF. […] On day-6, fresh media supplemented with M-CSF & RANKL were added to the differentiating cells. On day-7, the plates were fixed and evaluated for TRAP activity and counted for the number of TRAP-stained multinucleated osteoclasts formed similarly as mentioned above.

Another data set deals with cFos, NFAT2, TRAF6, TRAP. Nature of the data set: Western blotting of OC differentiation markers. The note with it: vs positive control (RANKL). It is filed as cell-based, murine. Here is the method:
To investigate the effects on OC differentiation, Pre-OC (RAW 264.7) cells were seeded, treated, and differentiated with various treatments as described under OC differentiation. Afterward, cells were lysed with 100 μL of RIPA buffer containing protease inhibitor. The lysates were collected and centrifuged at 1500 RPM for 10 minutes and analyzed for their protein content via the BCA protein assay kit. Protein samples (20 μg) were separated via 10% SDS-page gel and transferred onto a polyvinylidene fluoride (PVDF) membrane. The membrane was blocked with a respective blocking buffer, either 5% BSA or non-fat dry milk, for an hour. After blocking, the membranes were washed with 1× TBST buffer and later probed with primary antibodies; NFAT2, TRAP, TRAF6 and cFos with GAPDH as a loading control, diluted with 2% respective blocking buffer overnight at 4° C., followed by a 1-hour incubation with secondary HRP conjugated anti-rabbit IgG secondary antibody. The blots were visualized using the Fluorchem system.
In general terms: In western blotting, separated proteins are transferred to a membrane and probed.

Another data set relates to OCs from RAW 264.7 cells. The data set is described as follows: Pit resorption assay on bovine cortical bone slices, OCs from RAW 264.7. The note with it: vs positive control. The format is cell-based, murine. Here is the method: To assess the effects of various treatments on OC function, we assessed the possible anti-resorptive effect via pit resorption assay. Briefly, bovine cortical bone slices were cleaned and sterilized as per the manufacturer's instructions and placed in a 24-well plate. The study was carried out using OC derived from either RAW 264.7 differentiation or murine hematopoietic stem cells (mHSCs).
Using OCs from RAW 264.7 cells, the detached pre-OC cells were seeded on top of the sanitized bovine cortical bone slice using 1.5×10^5 cells/cm^2 supplemented with a complete growth medium on day 0. […] Subsequent treatment with complete media containing RANKL occurred every two days for seven days. After seven days, the wells were aspirated and processed for further analysis.
To assess the osteoclastic resorptive effect of the wells with or without treatment, the bone slices were fixed with 10% formaldehyde and initially TRAP-stained, as reported. The bone slices were thoroughly cleaned with cotton swab and strained with 0.5% toluidine blue stain and incubated for three minutes at room temperature. The slices were then washed with water five times and patted dry. The pits formed on the bone slices, depicting OC function, were evaluated.

The test system of the next data set is Cathepsin K (CTSK). Nature of the data set: CTSK ELISA of cell media during bone resorption, RAW 264.7. It is filed as cell-based, mouse. On the set-up: dose or concentration left out as unconfirmed. Here is the method: Cathepsin K (CTSK) assay was conducted during bone resorption studies (as described above) as a useful tool to assess the effects of GaMH treatment on OC function. Supernatant from treated/untreated wells after the third treatment of differentiation factors was collected and spun down at 2000g for 10 minutes at 4° C. The supernatant was then assessed for its CTSK concentration using the mouse CTSK/Cathepsin K Sandwich ELISA kit as per manufacture protocol.

Data set [4] can be described thus: In-vivo toxicity of GaAcAc solution based on weight of animals. The note with it: 100 μL of 100 μg/mL subcutaneously 1-3×/week for 4 weeks. Here is the method: Groups included in the study are: control: No injections; 1×/week: 100 μL of 100 μg/mL Ga solution injected subcutaneously in the back once per week for 4 weeks; 2×/week: 100 μL of 100 μg/mL Ga solution injected subcutaneously in the back twice per week for 4 weeks; 3×/week: 100 μL of 100 μg/mL Ga solution injected subcutaneously in the back three times per week for 4 weeks.

Data set [5] relates to OC differentiation and function. The note with it: earlier studies; cited from earlier work.
The nature of data set [6]: In-vivo retention by IVIS imaging with ICG marker. The arrangement: species or system BALB/c mice. As for the experimental part:
In-vivo retention studies were carried out in healthy BALB/c mice using indocyanine green (ICG) as the marker with monitoring via the in-vivo imaging system (IVIS) Lumina XRMS series III (PerkinElmer, USA). All animal studies were performed according to a protocol approved by the Institutional Animal Care and Use Committee of Northeast Ohio Medical University.
All treatments were administered by a single periosseous (intramuscular, bone adjacent) injection in the lower right hindlimb. The animals were observed via IVIS at a selected time point to obtain total radiant efficiency of the injection site with an excitation set at 780 nm and emission at 845 nm based on the earlier reported method. Okubo et al., International Journal of Pharmaceutics, 575: p. 118845(2020 ).

Turning to `CC(=O)/C=C(/C)[O][Ga]([O]/C(C)=C\C(C)=O)[O]/C(C)=C\C(C)=O` [GaAcAc, gallium acetylacetonate], the “viability of pre-OC cells” value in the data set on RAW 264.7 cells [1] is on record as “did not affect the viability”. For the same molecule, the “viability of pre-OB cells” value with MC3T3 cells is on record as “did not affect the viability”. For the same molecule, in the data set with RAW 264.7 cells [2] (10 μg/mL), the “TRAP staining (representative images)” value is “decrease in TRAP-stained cells”, the TRAP activity result is listed as “remarkable decrease in TRAP activity” and the “number of TRAP-stained OCs (OC count)” value was “significant reduction in the number of OCs”. In the data set on RAW 264.7 cells [2] (50 μg/mL), the “TRAP staining (representative images)” value is “complete absence of multinucleated and TRAP-stained cells”; the TRAP activity entry is listed as “remarkable decrease in TRAP activity”; the “number of TRAP-stained OCs (OC count)” value is given as “significant reduction in the number of OCs”. The “GaAcAc concentrations with significant inhibition of OC differentiation and OC count” value in [3] (dose-dependent, p<0.0001) is recorded as “greater than 25 μg/mL”. The “OC differentiation and OC counts” value in data set [3] (mHSCs) was “suppressed OC differentiation and OC counts”. In addition, the “expression levels of OC differentiation markers” value in the data set with cFos, NFAT2, TRAF6, TRAP (10 μg/mL GaAcAc) was “slight decrease in expression levels”. The “expression levels of OC differentiation markers” value in the data set on cFos, NFAT2, TRAF6, TRAP (50 μg/mL GaAcAc) is “downregulation of expression levels”. The “resorption pits on bone slices” value with OCs from RAW 264.7 cells (10 μg/mL GaAcAc) was “slightly reduced”. Further, the “number of pits formed” value with OCs from RAW 264.7 cells (50 μg/mL) was “significantly decrease the number of pits formed”. Also, the “reduction in level of CTSK” value with Cathepsin K (CTSK) (50 GaAcAc solution) is listed as 4 times reduction. The “reduction in CTSK concentration” value with Cathepsin K (CTSK) (GaAcAc solution (10)) was 1.4 times reduction. Further, the “toxicity based on weight of animals” value in data set [4] was “did not show detectable toxicity”.

Consider `O=[N+]([O-])[O-].O=[N+]([O-])[O-].O=[N+]([O-])[O-].[Ga+3]` [GaN, gallium nitrate], for which, in data set [5], the “OC differentiation and function” value was “effectively inhibit OC differentiation and function without affecting OBs”.

In the case of `CC1(C)C(/C=C/C=C/C=C/C=C2\N(CCCCS(=O)(=O)O)c3ccc4ccccc4c3C2(C)C)=[N+](CCCCS(=O)(=O)[O-])c2ccc3ccccc3c21` [ICG, Indocyanine green], the “fluorescent intensity at injection site” value is “diminished” in data set [6] (8 hrs post-injection, single periosseous injection) and “completely disappeared” in data set [6] (24 hrs post injection).
